Our source for the IC50 values is ChEMBL document CHEMBL3784915, “Design and synthesis of novel benzo[d]oxazol-2(3H)-one derivatives bearing 7-substituted-4-enthoxyquinoline moieties as c-Met kinase inhibitors” (Eur J Med Chem, 2016).

For the first test, the target named is Hepatocyte growth factor receptor (Homo sapiens, UniProt P08581). Kind of test: Inhibition of N-terminal 6His-tagged human recombinant c-MET expressed in baculovirus infected Sf21 cells using poly Ala-Glu-Lys-Tyr (6:2:5:1) as substrate after 3 hrs by scintillation counting in presence of [33P]-ATP.
Sequence of Hepatocyte growth factor receptor (P08581 whole entry): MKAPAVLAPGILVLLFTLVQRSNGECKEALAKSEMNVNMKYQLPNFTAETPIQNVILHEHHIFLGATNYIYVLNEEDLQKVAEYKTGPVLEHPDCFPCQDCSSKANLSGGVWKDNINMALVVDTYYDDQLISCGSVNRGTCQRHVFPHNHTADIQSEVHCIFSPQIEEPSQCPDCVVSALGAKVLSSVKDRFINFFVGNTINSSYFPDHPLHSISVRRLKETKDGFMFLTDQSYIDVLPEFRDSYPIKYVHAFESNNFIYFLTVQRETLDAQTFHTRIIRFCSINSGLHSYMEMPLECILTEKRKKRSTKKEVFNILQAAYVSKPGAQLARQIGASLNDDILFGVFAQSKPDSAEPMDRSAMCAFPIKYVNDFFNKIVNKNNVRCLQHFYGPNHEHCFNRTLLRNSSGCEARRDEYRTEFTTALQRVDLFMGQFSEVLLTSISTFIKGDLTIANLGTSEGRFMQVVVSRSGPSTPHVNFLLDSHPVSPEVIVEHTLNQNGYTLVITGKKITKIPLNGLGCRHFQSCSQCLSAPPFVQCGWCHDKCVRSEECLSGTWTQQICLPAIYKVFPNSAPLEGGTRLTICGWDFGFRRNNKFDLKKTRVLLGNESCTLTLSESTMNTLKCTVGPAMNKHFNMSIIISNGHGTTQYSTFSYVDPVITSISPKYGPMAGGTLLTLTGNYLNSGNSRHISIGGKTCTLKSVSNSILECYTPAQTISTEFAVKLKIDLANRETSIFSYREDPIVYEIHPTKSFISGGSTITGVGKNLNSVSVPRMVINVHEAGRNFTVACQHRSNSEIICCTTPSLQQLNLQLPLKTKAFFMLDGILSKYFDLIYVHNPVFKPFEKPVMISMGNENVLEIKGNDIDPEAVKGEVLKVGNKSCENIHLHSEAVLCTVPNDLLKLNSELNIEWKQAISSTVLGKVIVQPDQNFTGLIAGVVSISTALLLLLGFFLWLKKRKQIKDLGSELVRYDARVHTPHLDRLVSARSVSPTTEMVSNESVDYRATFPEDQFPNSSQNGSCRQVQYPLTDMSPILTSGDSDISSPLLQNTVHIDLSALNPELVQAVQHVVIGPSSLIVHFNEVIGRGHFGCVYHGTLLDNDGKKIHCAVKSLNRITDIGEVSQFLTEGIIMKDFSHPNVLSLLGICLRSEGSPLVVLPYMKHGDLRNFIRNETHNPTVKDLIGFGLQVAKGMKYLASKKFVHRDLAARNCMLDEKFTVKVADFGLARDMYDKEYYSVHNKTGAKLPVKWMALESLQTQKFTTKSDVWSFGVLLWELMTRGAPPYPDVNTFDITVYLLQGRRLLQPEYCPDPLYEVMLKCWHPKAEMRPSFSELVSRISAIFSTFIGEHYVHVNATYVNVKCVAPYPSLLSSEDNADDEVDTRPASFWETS
Settings: not given
`Cc1ccc2c(c1)oc(=O)n2Cc1cccc(NC(=O)OCCCN2CCOCC2)c1`: the IC50 (in general, the concentration at which inhibition is half-maximal) came to 1600 nM.

Test system in a further test: not listed separately
Kind of test: cells. Conditions: Homo sapiens, EBC-1, 72 h.
Description: Cytotoxicity against human EBC1 cells assessed as inhibition of cell proliferation after 72 hrs by sulforhodamine B assay
Turning to `CN1CCN(CCCOC(=O)Nc2cccc(Cn3nc(-n4ccc5ccc(F)cc54)ccc3=O)c2)CC1`, it took 672 nM to reach half-maximal inhibition (IC50).
As for `COC(=O)c1ccc2c(c1)oc(=O)n2CCOc1ccnc2cc(OC)ccc12`, the IC50 is over 500 nM.
The same measure, in the same setting: the value for `COc1ccc2c(OCCn3c(=O)oc4cc(N)ccc43)ccnc2c1` was 160 nM; that for `Cc1ccc2c(c1)oc(=O)n2CCOc1ccnc2cc(OCCCN3CCN(C)CC3)ccc12` was 170 nM.
For `Cc1ccc2c(c1)oc(=O)n2CCOc1ccnc2cc(OCCCCN3CCOCC3)ccc12`, the IC50 was 330 nM.
With `COCCOc1ccc2c(OCCn3c(=O)oc4cc(C)ccc43)ccnc2c1`, the half-maximal inhibitory concentration (IC50) was over 500 nM.
Still for that read-out and setting: the value for `COc1ccc2c(OCCn3c(=O)oc4cc(F)ccc43)ccnc2c1` was over 500 nM; that for `Cc1ccc2c(c1)oc(=O)n2CCOc1ccnc2cc(NCCCN3CCOCC3)ccc12` was 58 nM; that for `Cc1ccc2c(c1)oc(=O)n2CCOc1ccnc2cc(OCCCN3CCCC3)ccc12` was over 500 nM.
Same read-out and setting: the value for `COc1ccc2c(OCCn3c(=O)oc4ccc(C)cc43)ccnc2c1` was over 500 nM.
`Cc1ccc2c(c1)oc(=O)n2CCOc1ccnc2cc(OCCN3CCOCC3)ccc12` displayed an IC50 of 120 nM.
Same read-out and setting: the value for `COc1ccc2c(OCCn3c(=O)oc4ccc(-c5cnn(C)c5)cc43)ccnc2c1` was over 500 nM; that for `COC(=O)c1ccc2oc(=O)n(CCOc3ccnc4cc(OC)ccc34)c2c1` was over 500 nM.
Still for that read-out and setting: the value for `Cn1cc(-c2ccc3c(OCCn4c(=O)oc5cc(-c6cnn(C)c6)ccc54)ccnc3c2)cn1` was 5 nM; that for `COc1ccc2c(OCCn3c(=O)oc4cc(C)ccc43)ccnc2c1` was over 500 nM; that for `COc1ccc2c(OCCn3c(=O)oc4cc(N5CCOCC5)ccc43)ccnc2c1` was over 500 nM.
On the same count and under the same terms, the value for `COc1ccc2c(OCCn3c(=O)oc4ccc(F)cc43)ccnc2c1` was over 500 nM; that for `COc1ccc2c(OCCn3c(=O)oc4cc(-c5cnn(C)c5)ccc43)ccnc2c1` was 100 nM.
In turn, `COc1ccc2c(OCCn3c(=O)oc4cc(OC)ccc43)ccnc2c1` yielded an IC50 of over 500 nM.
Still for that read-out and setting: the value for `Cc1ccc2c(c1)oc(=O)n2CCOc1ccnc2cc(OCCCN3CCOCC3)ccc12` was 170 nM.
Still for that read-out and setting: the value for `Cc1ccc2c(c1)oc(=O)n2Cc1cccc(NC(=O)OCCCN2CCOCC2)c1` was 1600 nM; that for `Cc1ccc2c(c1)oc(=O)n2CCOc1ccnc2cc(-c3cnn(C)c3)ccc12` was 35 nM; that for `C[C@@H](Oc1cc(-c2cnn(C3CCNCC3)c2)cnc1N)c1c(Cl)ccc(F)c1Cl` [CRIZOTINIB] was 44 nM.
